What was measured:
[1] = system: Liver microsomes; test: Antioxidant activity in Wistar rat liver microsomes assessed as inhibition of lipid peroxidation by TBA assay; format: functional, Microsome
[2] = ABTS radical scavenging activity assessed as Trolox equivalent antioxidant capacity; format: physicochemical

SMILES | IC50 [1] [µM] | Activity [2] [mmol/L]
O=c1c(O)c(-c2ccc(O)c(O)c2)oc2cc(O)cc(O)c12 [QUERCETIN] | 8.5 | 1.14
COc1cc(/C=C/C(=O)O)ccc1O [FERULATE] | – | 0.23
Oc1cc(O)c2c(c1)O[C@H](c1ccc(O)c(O)c1)[C@@H](O)C2 [CATECHIN] | – | 0.57
O=c1c(O)c(-c2ccc(O)cc2O)oc2cc(O)cc(O)c12 [MORIN] | 23 | 0.83
O=C1C[C@@H](c2ccc(O)cc2)Oc2cc(O)cc(O)c21 [NARINGENIN] | 100 | –
Oc1ccc(/C=C/c2cc(O)cc(O)c2)cc1 [RESVERATROL] | – | 0.4
Oc1cc(O)c2c(c1)O[C@H](c1ccc(O)c(O)c1)[C@H](O)C2 [(-)-EPICATECHIN] | 25 | 0.99
O=c1c(O)c(-c2ccc(O)cc2)oc2cc(O)cc(O)c12 [KAEMPFEROL] | 19 | 0.79
O=c1c(O)c(-c2cc(O)c(O)c(O)c2)oc2cc(O)cc(O)c12 [MYRICETIN] | 10.5 | 1.02
O=C(O)/C=C/c1ccc(O)c(O)c1 [CAFFEIC ACID] | – | 1.01
Oc1cc(O)c2c(c1)OC(c1ccc(O)c(O)c1)C(O)C2 (stereo not drawn) [CATECHIN] | 51 | –
O=c1cc(-c2ccc(O)cc2)oc2cc(O)cc(O)c12 [APIGENIN] | 100 | –
O=C(O)c1cc(O)c(O)c(O)c1 [GALLIC ACID] | – | 1.98
